Data published in patent US9382426B2, “Water-insoluble coloring compound, ink, thermal transfer recording sheet, and color filter resist composition” (CANON KABUSHIKI KAISHA, priority 2012, dated 2016).

Legend:
Assay type in all cases: physicochemical
[1] = Light resistance evaluation of compound: ink image samples on paper, xenon tester; parameters: key to Light resistance ΔE (color difference): ΔE = Euclidean distance of L*a*b* before vs after exposure; conditions: ink image sample on paper; xenon tester 10 hours, 0.39 W/m^2 at 340 nm, 40° C., relative humidity 60%
Protocol: Ink (1) of the present invention was prepared by mixing 5 parts of Compound (1) as the water-insoluble coloring compound of the present invention, 350 parts of toluene, 350 parts of ethyl acetate, and 300 parts of 2-butanone.
Inks (1), (2), (4), (8), (13), (15), (23), (28), (29), and (30) and Comparative Inks (1) and (2) were each applied onto paper for contrast ratio measurement by bar coating (Bar No. 10) and were air-dried overnight to produce image samples. Chromaticity values (L*, a*, b*) in the L*a*b* color system of each image sample were measured with a reflection densitometer SpectroLino (manufactured by Gretag Macbeth AG).
(§1) Each of the image samples produced in the chromaticity measurement was charged in a xenon tester (Atlas Ci4000, manufactured by Suga Test Instruments Co., Ltd.) and was subjected to exposure conditions (irradiance: 0.39 W/m^2 at 340 nm, temperature: 40° C., relative humidity: 60%) for 10 hours. The reflection densities of printed matters were measured before and after the test. The color difference (ΔE) was calculated from the initial chromaticity values a0*, b0*, L0* and the chromaticity values a*, b*, L after the exposure by the following expression: ΔE=√{square root over ((a*−a0*)^2+(b*−b0*)^2+(L*−L0*)^2)} [Math. 1] The evaluation criteria are as follows: • A: ΔE<3.50 • B: 3.50≦ΔE<5.00 • C: 5.00≦ΔE

[2] = Evaluation of light resistance of thermal transfer recording sheets, xenon tester; conditions: thermal transfer recording sheet containing the compound; xenon tester 50 hours, 0.39 W/m^2 at 340 nm, 40° C., relative humidity 60%
Protocol: Ink (14) of the present invention was prepared by gradually adding 5 parts of a polyvinyl butyral resin (Denka 3000-K, manufactured by Denki Kagaku Kogyo K.K.) to a solution of 13.5 parts of Compound (4), as the water-insoluble coloring compound of the present invention, in a mixture of 45 parts of methyl ethyl ketone and 45 parts of toluene with stirring.
Ink (14) was applied onto a polyethylene terephthalate film (Lumirror, manufactured by Toray Industries, Inc.) having a thickness of 4.5 μm so as to have a dried thickness of 1 μm and was dried to produce thermal transfer recording sheet (4).
as §1, with “the resulting color filters and” for “the image samples produced in”, “the thermal transfer recording sheets” for “the chromaticity measurement”, “for 50” for “for 10”, “b*, L*” for “b*, L”, “[Math. 2]” for “[Math. 1]”

[3] = Evaluation of light resistance of color filters, xenon tester; conditions: color filter containing the compound; xenon tester 50 hours, 0.39 W/m^2 at 340 nm, 40° C., relative humidity 60%
Protocol: Ink (11) of the present invention was prepared by mixing 12 parts of Compound (1) as the water-insoluble coloring compound of the present invention and 120 parts of cyclohexanone and dispersing the mixture with an attritor (manufactured by Mitsui Mining Co., Ltd.) for 1 hour.
Twenty-two parts of Ink (11) was slowly added to a solution of 6.7 parts of an acrylic copolymer composition (weight average molecular weight Mw: 10000) composed of, as a monomer ratio, 40% by mass of n-butyl methacrylate, 30% by mass of acrylic acid, and 30% by mass of hydroxyethyl methacrylate, 1.3 parts of dipentaerythritol pentaacrylate, and 0.4 parts of 2-benzyl-2-dimethylamino-1-(4-morpholinophenyl)-butanone (photopolymerization initiator) in 96 parts of cyclohexanone, followed by stirring at room temperature for 3 hours. The reaction solution was filtered through a filter of 1.5 μm pore size to yield color filter yellow resist composition (1) of the present invention.
Color filter yellow resist composition (1) was spin-coated on a glass substrate and was then dried at 90° C. for 3 min, and the entire surface was then exposed to light and post-cured at 180° C. to produce color filter (1).
as §1, with “the resulting color filters and” for “the image samples produced in”, “the thermal transfer recording sheets” for “the chromaticity measurement”, “for 50” for “for 10”, “b*, L*” for “b*, L”, “[Math. 2]” for “[Math. 1]”

| SMILES | Light resistance ΔE (color difference) [1] | Light resistance ΔE, evaluation grade [1] | Light resistance ΔE (color difference) [2] | Light resistance ΔE, evaluation grade [2] | Light resistance ΔE (color difference) [3] | Light resistance ΔE, evaluation grade [3] |
| --- | --- | --- | --- | --- | --- | --- |
| CCCCC(CC)CN(CC(CC)CCCC)C(=O)c1ccc(/N=N/c2c(C)c(C#N)c(=O)n(N(CCCC)CCCC)c2O)cc1 (stereo not drawn) [Compound (30)] | 2.44 | A (A: ΔE<3.50) | 4.89 | B (B: 3.50≦ΔE<5.00) | – | – |
| CCCCC(CC)CN(CC(CC)CCCC)S(=O)(=O)c1ccc(/N=N/c2c(C)c(C#N)c(=O)n(N(C)C(=O)C(C)(C)C)c2O)cc1 (stereo not drawn) [Compound (29)] | 3.77 | B (B: 3.50≦ΔE<5.00) | 2.56 | A (A: ΔE<3.50) | – | – |
| CCCCC(CC)CN(CC(CC)CCCC)C(=O)c1cccc(/N=N/c2c(C)c(C#N)c(=O)n(N)c2O)c1 (stereo not drawn) [Compound (4)] | 1.70 | A (A: ΔE<3.50) | 2.76 | A (A: ΔE<3.50) | – | – |
| Cc1c(/N=N/c2ccccc2)c(O)n(N)c(=O)c1C#N [Comparative Compound (1), reference compound] | 10.6 | C (C: 5.00≦ΔE) | 15.1 | C (C: 5.00≦ΔE) | 12.8 | C (C: 5.00≦ΔE) |
| CCCCC(CC)CN(CC(CC)CCCC)C(=O)c1ccc(/N=N/c2c(-c3ccccc3)c(C#N)c(=O)n(NC(=O)c3ccccc3)c2O)cc1 (stereo not drawn) [Compound (8)] | 2.81 | A (A: ΔE<3.50) | – | – | 2.68 | A (A: ΔE<3.50) |
| CCCCC(CC)CN(CC(CC)CCCC)C(=O)c1cccc(/N=N/c2c(C)c(C#N)c(=O)n(N(C)C)c2O)c1 (stereo not drawn) [Compound (13)] | 3.98 | B (B: 3.50≦ΔE<5.00) | 3.37 | A (A: ΔE<3.50) | – | – |
| CCCCC(CC)CN(CC(CC)CCCC)C(=O)c1cccc(/N=N/c2c(C)c(C#N)c(=O)n(NC(=O)C(CC)CCCC)c2O)c1 (stereo not drawn) [Compound (15)] | 4.32 | B (B: 3.50≦ΔE<5.00) | – | – | 4.21 | B (B: 3.50≦ΔE<5.00) |
| CCCCC(CC)CN(CC(CC)CCCC)C(=O)c1ccccc1/N=N/c1c(C)c(C#N)c(=O)n(N)c1O (stereo not drawn) [Compound (1)] | 3.64 | B (B: 3.50≦ΔE<5.00) | – | – | 2.99 | A (A: ΔE<3.50) |
| CCCCC(CC)CN(CC(CC)CCCC)S(=O)(=O)c1ccc(/N=N/c2c(C)c(C#N)c(=O)n(N)c2O)cc1 (stereo not drawn) [Compound (23)] | 2.37 | A (A: ΔE<3.50) | 2.54 | A (A: ΔE<3.50) | – | – |
| CCCCC(CC)CN(CC(CC)CCCC)C(=O)c1ccc(/N=N/c2c(C)c(C#N)c(=O)n(N3CCCCC3)c2O)cc1 (stereo not drawn) [Compound (28)] | 1.64 | A (A: ΔE<3.50) | 2.32 | A (A: ΔE<3.50) | – | – |
